In patent US5137889A, “Dihydropyridine derivatives and process for preparing the same” (Otsuka Pharmaceutical Co., Ltd., priority 1983, dated 1992):

What was measured:
[1] = target: T1, Calmodulin-cyclic-AMP phosphodiesterase (Bos taurus, UniProt P62157); experiment: Calmodulin-cyclic-AMP phosphodiesterase inhibitory activity (presence of calmodulin); assay type: biochemical, bovine; details: with calmodulin and CaCl2, pH 7.0, 30° C., 30 minutes
T1 construct: tissue Amano & Co. (calmodulin only); host or cells: phosphodiesterase: bovine heart, partially purified; calmodulin: bovine brain
Excerpt: (1) Calmodulin: A calmodulin product manufactured by Amano & Co., which was isolated from the brain of bovine, and purified so as to be considered as a single substance with respect to SDS-page (polyacrylamide gel electrophoresis) method.
(§1) (2) Calmodulin-dependent cyclic-AMP phosphodiesterase (EC 3.1.4.17): An enzyme substance isolated from the heart of bovine and purified partially by a method of modified version of the disclosure in H. C. Ho, T. S. Teo, et al.: "Biochim. Biophys. Acta", 429, 461 (1976).
(§2) (3) 5'-Nucleotidase (EC 3.1.3.5): Grade IV substance (isolated from Crotalus adamanteus venom) manufactured by Sigma & Co.
(§3) (4) Others: Remainder of the reagents used in the test were those of reagent grade chemicals manufactured by Wako Pure-Chemical Industries, Ltd.
(§4) Calmodulin inhibitory activity of each of the test compounds was measured by a method of modified version of the disclosure in T. S. Teo and T. H. Wang: "J. Bio. Chem.", 248, 588 (1973).
(2) Calmodulin: One unit thereof stimulates 0.015 activated unit of cyclic-AMP phosphodiesterase to 50% of the maximum activity of the enzyme.
(§5) (3) 5'-Nucleotidase: One unit thereof hydrolyzes 1.0 micromole of inorganic phosphorus from adnosine 5'-monophosphate per minute at pH 9.0 at 37° C.
(1) Calmodulin-cyclic-AMP phosphodiesterase inhibitory activity:
40 mM of Imidazol, 20 mM of MgCl2, 20 mM of CaC12, 0.008 unit of cyclic-AMP phosphodiesterase, 1.0 unit of calmodulin, 0.2 unit of 5'-nucleotidase and 1.0 ml of 10 mM-tris(hydroxymethyl)aminomethane/HCl buffer solution (pH 7.0) containing 0.5 mM of cyclic-AMP were mixed together, and reacted at 30° C. for 30 minutes. Each of the test compounds was dissolved in methanol or N,N-dimethylformamide as the solvent, provided that the quantity of the solvent was not exceed 2% of the total amount of the mixture. After the reaction was completed, the reaction mixture was ice-cooled, and 0.5 ml each of aqueous solutions of 16.5%-trichloroacetic acid, 1%-thiourea, 3%-ammonium ferrous sulfate were respectively added to the reaction mixture. Further, 0.15 ml of 4.4%-ammonium molibdate solution was added to the mixture and the whole of the mixture was stirred, and was centrifuged at 3,000 r.p.m. for 10 minutes. Then, the centrifuged mixture was allowed to stand at a room temperature for 20 minutes. The OD660 nm (optical density at 660 nm) was measured.

[2] = target: T2, Cyclic-AMP phosphodiesterase (Bos taurus, UniProt P14100); experiment: Cyclic AMP phosphodiesterase inhibitory activity (absence of calmodulin, EGTA in place of CaCl2); assay type: biochemical, bovine; details: 1 mM EGTA in place of CaCl2; 3 hours
T2 construct: from tissue; host or cells: bovine heart, partially purified
T2 sequence (P14100 1-514 isoform P14100-2): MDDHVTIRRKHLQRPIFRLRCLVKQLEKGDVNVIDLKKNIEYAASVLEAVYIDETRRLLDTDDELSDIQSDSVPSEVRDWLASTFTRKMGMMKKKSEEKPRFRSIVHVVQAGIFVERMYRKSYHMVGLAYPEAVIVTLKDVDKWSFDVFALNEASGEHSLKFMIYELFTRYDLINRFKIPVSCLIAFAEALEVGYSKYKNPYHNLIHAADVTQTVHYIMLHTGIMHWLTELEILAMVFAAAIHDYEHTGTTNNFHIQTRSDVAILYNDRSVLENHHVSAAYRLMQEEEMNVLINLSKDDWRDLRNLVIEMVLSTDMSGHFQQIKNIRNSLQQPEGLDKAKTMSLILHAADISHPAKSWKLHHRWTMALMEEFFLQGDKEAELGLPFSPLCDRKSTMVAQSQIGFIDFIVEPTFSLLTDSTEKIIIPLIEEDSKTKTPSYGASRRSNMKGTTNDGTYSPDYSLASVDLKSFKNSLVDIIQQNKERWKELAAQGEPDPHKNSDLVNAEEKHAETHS
Excerpt: as §1, §2, §3, §4, §5
(2) Cyclic AMP phosphodiesterase inhibitory activity:
The reaction was conducted by a method similar to that described in (1) as mentioned above, except that 1 mM of EGTA [ethylene glycol-bis(β-amino ethyl ether)-N,N-tetraacetic acid] was used in place of 20 mM of CaCl2. The reaction was conducted for 3 hours.

[3] = system: SHR-rats (spontaneously hypertensive rats); details: 30 mg/kg p.o.
Procedure: Systolic blood pressures and heart beat of SHR-rats (spontaneously hypertensive rats) were determined by a "tail cuff method". Thus the test animal was placed in a thermostat chamber (Type: FR-12RS, manufactured by Isuze & Co.) and was warmed at 40° C. for 15 minutes so as to vasodilate the tail arteria, the systolic blood pressures were measured by an electro sphygmomanometer (Type: PE-300, manufactured by Narco-Biosystems, Inc.) and recorded by an ink-writing recorder (Type: RECTI-HORIZ 8s, manufactured by San-Ei Instrument & Co.). The experiments were conducted under non-anesthetized and semi-confinement conditions. The test compound was orally administered forcedly by using a sonde for oral administration. The test compound was suspended in 0.15%-gum arabic powder aqueous solution so as to make the quantity of the test compound to 2.5 ml/kg. The test animal was not fasted, and the systolic blood pressures (mm-Hg) were measured before the administration (hereinafter referred to as "PRE") and after the administration (8, 24, 30, 48, 54 and 72 hours after the administration) of the test compound. The data of systolic blood pressure measured before the administration are shown in absolute value of mmHg, and the data measured after the administration are shown in the differences from the absolute values.

| Compound | Calmodulin-cyclic-AMP phosphodiesterase IC50 [1] [µg/mL] | Cyclic-AMP phosphodiesterase IC50 [2] [µg/mL] | Blood pressure after the administration, 24 hours (difference from the absolute value before administration) [3] [mm-Hg] | Blood pressure after the administration, 30 hours (difference from the absolute value before administration) [3] [mm-Hg] | Blood pressure after the administration, 48 hours (difference from the absolute value before administration) [3] [mm-Hg] | Blood pressure after the administration, 54 hours (difference from the absolute value before administration) [3] [mm-Hg] | Blood pressure after the administration, 72 hours (difference from the absolute value before administration) ([3]; 72 hours) [mm-Hg] | IC50 ([1]; read-out: Calmodulin-cyclic-AMP phosphodiesterase IC50 (converted)) [µM] | IC50 [2] [µM] |
| --- | --- | --- | --- | --- | --- | --- | --- | --- | --- |
| Methyl 3-(4-hydroxyphenyl)-2-propynyl 1,4-dihydro-2,6-dimethyl-4-(3-nitrophenyl)-pyridine-3,5-dicarboxylate [Test Compound 12] | 0.78 | 13 | -18.0 | -25.8 | -19.8 | -14.6 | – | – | – |
| Methyl 4-(4-methylthiophenyl)-3(E)-butenyl 1,4-dihydro-2,6-dimethyl-4-(3-nitrophenyl)-pyridine-3,5-dicarboxylate [Test Compound 15] | 0.062 | 0.23 | -75.4 | -66.8 | -20.8 | -10.6 | -9.6 | – | – |
| Methyl 3-(4-hydroxyphenyl)-2(E)-propenyl 1,4-dihydro-2,6-dimethyl-4-(3-nitrophenyl)pyridine-3,5-dicarboxylate [Test Compound 1] | 4.1 | 60 | -38.6 | -21.2 | -21.0 | -19.2 | – | – | – |
| COC(=O)C1=C(C)NC(COC/C=C/c2ccc(O)cc2)=C(C(=O)OC)C1c1cccc([N+](=O)[O-])c1 (stereo not drawn) [Test Compound 21, Dimethyl 1,4-dihydro-2-[3-(4-hydroxyphenyl)-2(E)-propenyloxymethyl]-6-methyl-4-(3-nitrophenyl)pyridine-3,5-dicarboxylate] | – | – | – | – | – | – | – | 12.1 | > 202 |
